In patent publication US8361970B2, “Growth factor binding molecules” (University of South Florida, priority 2000, dated 2013):
Where “and” joins values, the source holds several entries; their conditions need not be identical. Identical values can stand only once.

Columns and labels:
[1] = system: angiogenesis in A-549 tumors; test: Angiogenesis: Factor VIII immunostaining and microvessel count in A-549 tumors; format: in vivo, nude mice; settings: for Microvessel count (Mean ± SD) 250X / Microvessel count (Mean ± SD) 400X: A-549 tumor
Description: On the indicated termination day of each nude mouse experiment described above, (see also Table 2), the tumors are extracted and half frozen at −70° C., and half is fixed in 10% neutral buffered formalin for 6 hrs. After fixation the tissue samples are processed into paraffin blocks. Four micrometer-thick tissue sections are obtained from the paraffin blocks and stained with hematoxylin and eosin (H&E) (Richard-Allan Scientific, Kalamazoo, Mich.) using standard histologic techniques. Tissue sections are also subjected to immunostaining for Factor VIII using the avidin biotin peroxidase complex technique (Vectastatin Elite ABC Kit, Vector, Burlingame, Calif.). Rabbit polyclonal FVIII antibody (Von Willebrand Factor, Dako Corporation, Carpinteria, Calif.) is used at 1:400 dilution, following microwave antigen retrieval (4 cycles of 5 minutes each on high in 0.1M citrate buffer).

[2] = system: aFGF-stimulated MAP kinase activation of p42 and p44; test: Inhibition of aFGF stimulation of p42/p44 MAP kinase in NIH 3T3 cells; format: cell-based
Description: In other experiments, starved NIH 3T3 cells (PDGF-AA, PDGF-BB, aFGF, bFGF), NIH 3T3 cells overexpressing EGFR. IGF-1R or Flk-1 and the human breast carcinoma SkBr3 that overexpresses ErbB2 (HRGβ) are pretreated with GFB-111 (100 μM) for 5 min before 10 min stimulation with the indicated growth factors at the concentrations shown above and aFGF (10 ng/ml), bFGF (50 ng/ml), IGF-1 (50 ng/ml) and HRGβ (10 ng/ml). Cell lysates are then immunoblotted with anti-phospho Erk1/Erk2 as described above.
The ability of growth factor binding agents in the library of growth factor binding agents to block an aFGF signal is measured by aFGF-stimulation of MAP kinase activation of p42 and p44 essentially as described above for VEGF. NIH 3T3 cells are used as the target cell. […] A preferred embodiment of the invention is a compound that binds to acidic fibroblast growth factor, of the general structure III, in which R is n-butyl, n-propyl, or benzyl, and X1, X2, X3, and X4 optionally comprise covalently attached cyclic peptide loops of the general structure II, wherein R1, R2, R3, and R4 are each amino acid side chains that define a tetrapeptide sequence, wherein said tetrapeptide is covalently attached at the amino and carboxy termini of said tetrapeptide to a 3-aminomethyl-5-aminobenzamide linking group, and wherein said tetrapeptide sequence is as given, for example, in Table 5.

PDGF-BB = target: T1, PDGF-BB (Homo sapiens, UniProt P01127); test: Inhibition of [125I]-PDGF-BB binding to its receptor on NIH 3T3 cells; settings: FIG. 2C
T1 construct: host or cells: NIH 3T3 cells carry the receptor
T1 sequence (P01127 82-190 limits assumed): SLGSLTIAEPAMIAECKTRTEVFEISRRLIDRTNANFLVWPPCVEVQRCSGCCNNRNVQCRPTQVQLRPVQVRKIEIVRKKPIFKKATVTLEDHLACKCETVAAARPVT
Description: NIH 3T3 (PDGF) or NIH 3T3 cells overexpressing either EGFR (EGF), IGFR (IGF) or Flk-1 (VEGF), are incubated with [^125I]-PDGF, [^125I]-EGF, [^125I]-IGF or [^125I]-VEGF, respectively (50,000 cpm per well) and increasing concentrations of GFB-111 or GFB-116. Cells are incubated at 4° C. for 1-3 h. After discarding media, the cells are washed 3 times with PBS and three times with Tris 25 mM pH 8.0, 1% T-X-100, 10% glycerol, 1% SDS. Lysates plus wash are counted. Excess of cold growth factors is used to obtain non-specific binding levels.
Whether GFB 111 can block [^125I]-PDGF-BB specific binding in NIH 3T3 cells is determined by pre-treatment of the PDGF-BB with increasing concentrations of GFB-111. FIG. 2C illustrates that in the absence of GFB-111, [^125I]-PDGF-BB is bound by NIH3T3 cells. However, pre-treatment with increasing concentrations of GFB-111, results in a concentration-dependent decrease in PDGF-BB binding.

Molecule | Microvessel count (Mean ± SD) 250X ([1]; 50 mpk, 50 mg/kg) | Microvessel count (Mean ± SD) 400X ([1]; 50 mpk, 50 mg/kg) | Inhibition of angiogenesis ([1]; A-549 tumors) | aFGF-activation of Erk1/Erk2 ([2]; concentrations as high as 100 μM) | Block of PDGF-BB binding to its receptor (PDGF-BB) | Microvessel count (Mean ± SD) 250X ([1]; 50 mpk) | Microvessel count (Mean ± SD) 400X ([1]; 50 mpk) | Inhibition of angiogenesis by microvessel counting ([1]; A-549 tumors, 50 mpk) | Block of aFGF-stimulation of MAP kinase activation of p42 and p44 ([2]; NIH 3T3)
CCCCOc1c2cc(C(=O)Nc3cc4cc(c3)C(=O)NCC(=O)N[C@@H](CC(=O)O)C(=O)NCC(=O)N[C@@H](Cc3ccc(O)cc3)C(=O)NC4)cc1Cc1cc(C(=O)Nc3cc4cc(c3)C(=O)NCC(=O)N[C@@H](CC(=O)O)C(=O)NCC(=O)N[C@@H](Cc3ccc(O)cc3)C(=O)NC4)cc(c1OCCCC)Cc1cc(C(=O)Nc3cc4cc(c3)C(=O)NCC(=O)N[C@@H](CC(=O)O)C(=O)NCC(=O)N[C@@H](Cc3ccc(O)cc3)C(=O)NC4)cc(c1OCCCC)Cc1cc(C(=O)Nc3cc4cc(c3)C(=O)NCC(=O)N[C@@H](CC(=O)O)C(=O)NCC(=O)N[C@@H](Cc3ccc(O)cc3)C(=O)NC4)cc(c1OCCCC)C2 [GFB-111] | 3.63 ± 1.36 and 5.68 ± 1.74 | 2.34 ± 1.01 and 3.58 ± 1.01 | strongly | minimally affected | blocked |  |  |  | 
GKGK [GFB-116] |  |  | efficacious |  | not | 5.56 ± 1.75 | 3.46 ± 1.19 | 70% | very effective
